Test [1] relates to beet armyworm (BAW; Spodoptera exigua: Lepidoptera). The test can be described thus: 96-well microtiter plate-based high throughput (HTS) diet bioassay on beet armyworm (BAW HTS). To be noted: for BAW HTS: 96-well microtiter plate HTS diet assay, 12 μg test compound per well, BAW eggs, mortality at 6 d post-treatment, mortality class; for pest or weed control at 12 µg/well, 12 µg/well: Spodoptera exigua, 144 h, read-out: BAW HTS. The test is classed as in vivo. A digest of the protocol: (§1)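 Two diet formats. HTS: eggs on 96-well diet overlaid with 12 μg compound, held 6 d at 29° C in dark, mean mortality of six replicates. BAW 50: three to five second-instar larvae per well on diet dosed at 50 μg/cm^2, held six days at 25° C under 14:10 light-dark, mortality averaged across eight wells.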

Test [2] shares this test system. The experiment in a line: 128-well diet tray assay on beet armyworm (BAW 50). Type of test: in vivo. To be noted: for BAW 50 ug/cm2: 128-well diet tray assay, 50 μg/cm^2 of test compound on diet, second instar BAW larvae, mortality class; for pest or weed control at 50 µg/cm2, 50 µg/cm2: Spodoptera exigua, 144 h, read-out: BAW 50 ug/cm2. The procedure, abridged:
as §1

`CCCO[C@@H]1[C@@H](OC)[C@H](C)O[C@@H](OC(=O)N(CC)c2ccc(-c3ncn(-c4ccc(OC(F)(F)C(F)(F)F)cc4)n3)cc2)[C@@H]1OC` [Compound 253, ethyl {4-[1-(4-pentafluoroethoxy-phenyl)-1H-[1,2,4]triazol-3-yl]-phenyl}-carbamic acid (2S,3R,4R,5S,6S)-4-propoxy-3,5-dimethoxy-6-methyl-tetrahydropyran-2-yl ester]: in test [1], the “BAW HTS” value was “A (the compound was tested and at least 50 percent mortality was observed)”; the pest or weed control at 12 µg/well, 12 µg/well is > 50%. Further, in test [2], the “BAW 50 ug/cm2” value is “A (the compound was tested and at least 50 percent mortality was observed)”; the pest or weed control at 50 µg/cm2, 50 µg/cm2 is > 50%.
In the case of `CCO[C@@H]1[C@@H](OC)[C@H](C)O[C@@H](OC(=O)N(COC)c2ccc(-c3ncn(-c4ccc(OC(F)(F)F)cc4)n3)cc2)[C@@H]1OC` [Compound 254, methoxymethyl {4-[1-(4-trifluoromethoxyphenyl)-1H-[1,2,4]triazol-3-yl]-phenyl}-carbamic acid (2S,3R,4R,5S,6S)-4-ethoxy-3,5-dimethoxy-6-methyl-tetrahydropyran-2-yl ester], in test [1], the “BAW HTS” value was “A (the compound was tested and at least 50 percent mortality was observed)”; the pest or weed control at 12 µg/well, 12 µg/well was > 50%. Further, in test [2], the “BAW 50 ug/cm2” value was “A (the compound was tested and at least 50 percent mortality was observed)”; the pest or weed control at 50 µg/cm2, 50 µg/cm2 was > 50%.
In the case of `CCO[C@@H]1[C@@H](OC)[C@H](C)O[C@@H](OC(=O)N(COC)c2ccc(-c3ncn(-c4ccc(OC(F)(F)C(F)(F)F)cc4)n3)cc2)[C@@H]1OC` [Compound 255, methoxymethyl {4-[1-(4-pentafluoroethoxyphenyl)-1H-[1,2,4]triazol-3-yl]-phenyl}-carbamic acid (2S,3R,4R,5S,6S)-4-ethoxy-3,5-dimethoxy-6-methyl-tetrahydropyran-2-yl ester], in test [1], the “BAW HTS” value was “B (either (1) the compound was tested and less than 50 percent mortality was observed or (2) the compound was not tested)”; the pest or weed control at 12 µg/well, 12 µg/well is < 50%. In test [2], the “BAW 50 ug/cm2” value is “A (the compound was tested and at least 50 percent mortality was observed)”; the pest or weed control at 50 µg/cm2, 50 µg/cm2 is > 50%.
For the compound `C=CCN(C(=O)O[C@@H]1O[C@@H](C)[C@H](OC)[C@@H](OCC)[C@H]1OC)c1ccc(-c2ncn(-c3ccc(OC(F)(F)C(F)(F)F)cc3)n2)cc1` [Compound 256, allyl {4-[1-(4-pentafluoroethoxy-phenyl)-1H-[1,2,4]triazol-3-yl]-phenyl}-carbamic acid (2S,3R,4R,5S,6S)-4-ethoxy-3,5-dimethoxy-6-methyl-tetrahydropyran-2-yl ester], in test [1], the “BAW HTS” value is “A (the compound was tested and at least 50 percent mortality was observed)”; the pest or weed control at 12 µg/well, 12 µg/well is > 50%. In test [2], the “BAW 50 ug/cm2” value was “A (the compound was tested and at least 50 percent mortality was observed)”; the pest or weed control at 50 µg/cm2, 50 µg/cm2 was > 50%.
Take `CCCO[C@@H]1[C@@H](OC)[C@H](C)O[C@@H](OC(=O)N(CO)c2ccc(-c3ncn(-c4ccc(OC(F)(F)C(F)(F)F)cc4)n3)cc2)[C@@H]1OC` [Compound 257, hydroxymethyl {4-[1-(4-pentafluoroethoxy-phenyl)-1H-[1,2,4]triazol-3-yl]-phenyl}-carbamic acid (2S,3R,4R,5S,6S)-4-propoxy-3,5-dimethoxy-6-methyl-tetrahydropyran-2-yl ester]: in test [1], the “BAW HTS” value was “B (either (1) the compound was tested and less than 50 percent mortality was observed or (2) the compound was not tested)”; the pest or weed control at 12 µg/well, 12 µg/well is < 50%. For the same compound, in test [2], the “BAW 50 ug/cm2” value is “A (the compound was tested and at least 50 percent mortality was observed)”; the pest or weed control at 50 µg/cm2, 50 µg/cm2 was > 50%.
In the case of `CCO[C@@H]1[C@@H](OC)[C@H](C)O[C@@H](OC(=O)N(C(C)=O)c2ccc(-c3ncn(-c4ccc(OC(F)(F)C(F)(F)F)cc4)n3)cc2)[C@@H]1OC` [Compound 258, acetyl {4-[1-(4-pentafluoroethoxyphenyl)-1H-[1,2,4]triazol-3-yl]-phenyl}-carbamic acid (2S,3R,4R,5S,6S)-4-ethoxy-3,5-dimethoxy-6-methyl-tetrahydropyran-2-yl ester], in test [1], the “BAW HTS” value is “A (the compound was tested and at least 50 percent mortality was observed)”; the pest or weed control at 12 µg/well, 12 µg/well was > 50%. In test [2], the “BAW 50 ug/cm2” value is “A (the compound was tested and at least 50 percent mortality was observed)”; the pest or weed control at 50 µg/cm2, 50 µg/cm2 is > 50%.
With `CCO[C@@H]1[C@@H](OC)[C@H](C)O[C@@H](OC(=O)N(C(=O)CCC(=O)OC)c2ccc(-c3ncn(-c4ccc(OC(F)(F)C(F)(F)F)cc4)n3)cc2)[C@@H]1OC` [Compound 259, 4-(((2S,3R,4R,5S,6S)-4-ethoxy-3,5-dimethoxy-6-methyl-tetrahydropyran-2-yloxycarbonyl)-{4-[1-(4-pentafluoroethoxy-phenyl)-1H-[1,2,4]triazol-3-yl]-phenyl}-amino)-4-oxo-butyric acid methyl ester], in test [1], the “BAW HTS” value was “B (either (1) the compound was tested and less than 50 percent mortality was observed or (2) the compound was not tested)”; the pest or weed control at 12 µg/well, 12 µg/well is < 50%. Besides, in test [2], the “BAW 50 ug/cm2” value is “A (the compound was tested and at least 50 percent mortality was observed)”; the pest or weed control at 50 µg/cm2, 50 µg/cm2 is > 50%.

Values taken from US8178658B2 (Dow AgroSciences, LLC, priority 2008, dated 2012).
